Laboratory results as given in patent publication US20240182406A1, “COMPOUNDS AS SOLUBLE EPOXIDE HYDROLASE INHIBITORS” (UNIVERSITAT DE BARCELONA, priority 2021, published 2024).
Marks after values point to notes of the source that are not given here.

Assays:
[1] = In vitro determination of microsomal stability; type: in vitro ADME; conditions: human microsomes, 37° C., samples at 0-60 min
Method: The human recombinant microsomes employed were purchased from Tebu-Xenotech. […] Samples (75 μL) were taken from each well at 0, 10, 20, 40 and 60 min and transferred to a plate containing 4° C. 75 μL acetonitrile and 30 μL of 0.5% formic acid in water were added for improving the chromatographic conditions. The plate was centrifuged (46000 g, 30 min) and supernatants were taken and analyzed in a UPLC-MS/MS (Xevo-TQD, Waters) by employing a BEH C18 column and an isocratic gradient of 0.1% formic acid in water:0.1% formic acid acetonitrile (60:40). The metabolic stability of the compounds was calculated from the logarithm of the remaining compounds at each of the time points studied.

[2] = tested on: amyloid plaques; experiment: Thioflavin S staining of amyloid plaques in brain slices (5×FAD mice); type: in vivo, mouse; conditions: 5×FAD male mice 6-month-old, 5 mg/kg, 4 weeks, mean ± SEM
From the text: (§1) 5×FAD (tg6799) is an early-onset mouse transgenic model which overexpress mutant human APP(695) with the Swedish (K670N, M671L), Florida (I716V) and London (V717I) Familial Alzheimer's Disease (FAD) mutations along with human PS1 harbouring two FAD mutations (M146L and L286V). The Tg6799 line used is the original hybrid B6SJL background, and this hybrid B6SJL strain is used as a control of healthy animals. The mouse Thy1 promoter regulates both transgenes to drive overexpression in the brain. 5×FAD mice recapitulate major features of AD amyloid pathology and is a useful model of intraneuronal Abeta-42 induced neurodegeneration with amyloid increase brain content and amyloid plaque formation and tau hyperphosphorylation (J Neurosci. 2006, 26(40), 10129-10140).
The test compound was dissolved in 1.8% hydroxypropyl-beta-cyclodextrin and concentration in water was calculated according to the weekly animal consumption to reach the precise daily dose. A freshly made weekly replaces the drinking solution. The amount of water that the animals drink was monitored weekly, by the cage, and drug concentration was adjusted every week to reach the precise dose. After 4 weeks of maintained treatment, mice were studied in the behavioural tests.
After NORT, animals were sacrificed and the whole hippocampus dissected or brain slices from control and treated mice obtained by using a cryostat. […]

[3] = tested on: GFAP; experiment: Western blot of hippocampus, neuroinflammation marker GFAP (5×FAD mice); type: in vivo, mouse; conditions: 5×FAD male mice, 5 mg/kg, 4 weeks, Arbitrary Units, control as 100%
From the text: as §1
The test compound was dissolved in 1.8% hydroxypropyl-beta-cyclodextrin and concentration in water was calculated according to the weekly animal consumption to reach the precise daily dose. A freshly made weekly replaces the drinking solution. The amount of water that the animals drink was monitored weekly, by the cage, and drug concentration was adjusted every week to reach the precise dose. […]
Afterwards, membranes were washed and incubated with secondary antibodies for 1 h at room temperature. […] Immunodetection of GADPH routinely monitored protein loading. […]

[4] = tested on: mouse primary microglia; experiment: AβO-induced microglial activation, qPCR; type: cell-based; conditions: pretreated with compound followed by Aβ1-42 (2 μM)
Method: To validate the inhibition efficacy of sEH, 3×10^5 microglia isolated from CD1 mouse brain were seeded onto 12 well culture plates in microglia medium.
Total RNAs were isolated from microglia or astrocyte using a Quick-RNA kit (Zymo Research, Inc., Irvine, CA, USA). The concentration of total RNAs was measured using a UV-Vis spectrophotometer (NanoDrop8000, Thermo Fisher Scientific Inc., Wilmington, DE, USA) and reverse-transcribed with a high-capacity cDNA reverse transcription kit (Applied Biosystems, Carlsbad, CA, USA). Gene expression was quantified by Fast SYBR green real-time PCR on a Quantstudio 5 system (Applied Biosystems). The primer sequences are listed below (Table 8). Data were analyzed according to the comparative Ct method. Glyceraldehyde 3-phosphate dehydrogenase (Gapdh) was used to normalize the amounts of cDNA within each sample.

SMILES: O=C(NC12CC3CC(Cl)(CC(C1)c1ccccc13)C2)N[C@H]1CC[C@H](Oc2ccc(C(=O)O)cc2)CC1 [Example 2, 4-[((1r,4r)-4-(3-(9-chloro-5,6,8,9,10,11-hexahydro-7H-5,9:7,11-dimethanobenzo[9]annulen-7-yl)ureido)cyclohexyl)oxy]benzoic acid]
- Microsomal stability (% remanent) [1]: 89%
- Number of Aβ plaques [2]: 292 ± 83
- GFAP protein levels ([3]; listed as Cpd. Ex. 2): 125.85 ± 9.21*^
- GFAP protein levels ([3]; listed as compound of example 2): significant diminution in the protein levels
- mRNA for pro-inflammatory cytokines II-6 and II-1b [4]: prevented
